Here are results for three molecules from patent US4223034A, “Aniline derivatives” (Beecham Group Limited, priority 1977, dated 1980).

Molecules are shown by their SMILES. Where two headings read alike, the source gives them in different places.

Data set [1] is described as follows: in vivo. Conditions: sc.
Data set [2] has as its system amphetamine induced stereotypy. The experiment in a line: amphetamine stereotype test (antagonism of amphetamine induced stereotypy). It counts as in vivo, rats. The settings on record: for ED50: Rattus norvegicus, sc.
Another data set is described as follows: anti-catepressan test. The settings on record: per oral. The data set is classed as in vivo. On the procedure: (§1) a. […] On the anti-catepressan test [based on Costal et al, Europ. […] The LD50 of the compound of Example 3 is about 500 mg/kg per oral in the mouse.
A short description of data set [3]: in vivo. Conditions: mouse, po. On the procedure: as §1
[4] abbreviates: S.C., Table 1, read-out: ED50, antagonism of amphetamine induced stereotypy.

In general, ED50 refers to the dose at which the effect has come halfway, by size or by number of responders. In the case of `CN(C)CCCN1c2ccccc2Sc2ccc(Cl)cc21` [Chlorpromazine, reference compound], the 50% effective dose (ED50) in the data set “in vivo [1]” came to 3 mg/kg; in data set [2] (setting [4]), 1 mg/kg. In addition, the “Ratio catalepsy / anti-sterotypy” value with catalepsy (ratio of ED50 values S.C., Table 1) is listed as 3.
Turning to `O=C(CCCN1CCC(O)(c2ccc(Cl)cc2)CC1)c1ccc(F)cc1` [Haloperidol, reference compound], the ED50 was 0.3 mg/kg in “in vivo [1]” and 0.05 mg/kg in data set [2] (setting [4]).
Broadly, the LD50 is the dose expected to kill half of the subjects tested. Low values mean greater toxicity, high ones lower toxicity. As to `COc1cc(N)c(Cl)cc1NC(=O)C1CCN(Cc2ccccc2)CC1` [Example 3, 5-Amino-4-chloro-2-(1^1-benzylpiperidine-4-carboxamido)-anisole], the 50% effective dose (ED50) worked out at 6 mg/kg in “in vivo [1]”; 5 mg/kg in “anti-catepressan test”; 0.2 mg/kg in data set [2] (setting [4]); 0.2 mg/kg in data set [2] (rats, administered sub-cutaneously, read-out: ED50, amphetamine stereotype test). For the same molecule, the “propensity to induce catalepsy relative to anti-stereotypy activity (in words)” value in the data set with catalepsy (in vivo) was “weaker propensity to induce catalepsy”. Further, the “Ratio catalepsy / anti-sterotypy” value in the data set with catalepsy (in vivo, sc) is 30. The LD50 in “in vivo [3]” was around 500 mg/kg. In data set [2] (as judged by amphetamine induced stereotypy test), the “anti-psychotic or neuroleptic activity (in words)” value is “have anti-psychotic or neuroleptic activity”.
